# Biological target: PIK3CG (human) (UniProt P48736)
# Assay: Assessment of PIK3CG Kinase Activity
# Chain of PIK3CG (human) (P48736 whole entry, looked up): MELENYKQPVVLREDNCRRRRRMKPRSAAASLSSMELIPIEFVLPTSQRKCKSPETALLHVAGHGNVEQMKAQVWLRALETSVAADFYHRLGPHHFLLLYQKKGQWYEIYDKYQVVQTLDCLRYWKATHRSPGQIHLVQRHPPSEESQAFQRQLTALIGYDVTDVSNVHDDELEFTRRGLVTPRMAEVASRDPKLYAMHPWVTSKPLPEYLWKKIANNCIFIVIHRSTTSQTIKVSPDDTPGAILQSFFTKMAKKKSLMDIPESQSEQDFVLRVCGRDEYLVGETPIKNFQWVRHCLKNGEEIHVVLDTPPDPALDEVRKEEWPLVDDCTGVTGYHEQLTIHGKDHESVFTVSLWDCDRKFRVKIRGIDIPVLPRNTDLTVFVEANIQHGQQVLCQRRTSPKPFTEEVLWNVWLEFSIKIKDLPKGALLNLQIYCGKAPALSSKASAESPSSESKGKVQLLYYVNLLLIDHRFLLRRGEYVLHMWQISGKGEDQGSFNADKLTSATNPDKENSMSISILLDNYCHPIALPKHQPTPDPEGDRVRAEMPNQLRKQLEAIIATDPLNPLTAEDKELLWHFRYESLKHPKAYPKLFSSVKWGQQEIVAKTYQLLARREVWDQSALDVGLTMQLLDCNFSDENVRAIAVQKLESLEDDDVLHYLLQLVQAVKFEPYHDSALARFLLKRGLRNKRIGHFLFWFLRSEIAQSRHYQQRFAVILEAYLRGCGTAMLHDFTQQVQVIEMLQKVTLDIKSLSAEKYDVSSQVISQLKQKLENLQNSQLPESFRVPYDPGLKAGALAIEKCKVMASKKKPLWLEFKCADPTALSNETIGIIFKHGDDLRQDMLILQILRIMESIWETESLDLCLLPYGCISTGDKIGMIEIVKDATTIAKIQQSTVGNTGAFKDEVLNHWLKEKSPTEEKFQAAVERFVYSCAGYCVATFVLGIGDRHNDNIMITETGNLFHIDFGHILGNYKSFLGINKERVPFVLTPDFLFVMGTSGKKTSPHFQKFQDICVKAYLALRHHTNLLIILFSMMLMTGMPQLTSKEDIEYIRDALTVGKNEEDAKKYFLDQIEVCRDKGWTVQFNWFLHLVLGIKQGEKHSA
row,Structure (SMILES),IC50
1,CN(C)CCN(C)C(=O)Nc1nc2c(s1)-c1c(cnn1-c1ccccc1Cl)C2,< 800 nM
2,COCc1nn(-c2ccccc2Br)c2c1CCc1nc(NC(C)=O)sc1-2,< 800 nM
3,CC(=O)Nc1nc2c(s1)-c1c(c(NC(=O)NC(C)C)nn1-c1ccccc1Cl)CC2,< 800 nM
4,C#CCN(C)C(=O)c1ccc(-n2ncc3c2-c2sc(NC(C)=O)nc2CC3)cc1,< 800 nM
5,CC(=O)Nc1nc2c(s1)-c1nc(N3CCOCC3)ncc1CC2,< 800 nM
6,CC(=O)Nc1nc2c(s1)-c1c(cnn1-c1ccc(C(=O)N[C@H]3CC[C@H](N4CCCCC4)CC3)cc1)CC2,< 800 nM
7,CC(=O)Nc1nc2c(s1)-c1c(cnn1-c1ccc(S(C)(=O)=O)cc1)C2,< 800 nM
8,CC(=O)Nc1nc2c(s1)-c1c(c(C(C)C)nn1-c1ccc(C(=O)O)cc1Cl)CC2,< 800 nM
9,CC(=O)Nc1nc2c(s1)-c1nn(C(=O)c3ccc(Cl)cc3)cc1CC2,< 800 nM
10,Cc1ccccc1-n1ncc2c1C1SC(N)=NC1C2 (centres undefined),< 800 nM
11,CN(C)C(=O)Nc1nc2c(s1)-c1nc(N(C)C)ncc1CC2,< 800 nM
12,CC(=O)Nc1nc2c(s1)-c1c(cnn1-c1ccc3cn[nH]c3c1)CC2,< 800 nM
13,COCc1nn(-c2ccccc2Cl)c2c1CCc1nc(NC(C)=O)sc1-2,< 800 nM
14,CC(=O)Nc1nc2c(s1)-c1c(cnn1-c1ccc(CC(=O)NCc3cnn(C)c3)cc1)CC2,< 800 nM
15,CC(=O)Nc1nc2c(s1)-c1c(cnn1-c1cccc(C(=O)O)c1)CC2,< 800 nM
16,CC(=O)Nc1nc2c(s1)-c1nn(-c3ccc(C(=O)NC4CCN(C)CC4)cc3Cl)c(-c3ccco3)c1CC2,< 800 nM
17,CC(=O)Nc1nc2c(s1)-c1c(cnn1-c1ccc(C(=O)N[C@H]3CC[C@H](N(C)C)CC3)cc1)CC2,< 800 nM
18,CC(=O)Nc1nc2c(s1)-c1c(c(-c3ccco3)nn1-c1ccccc1Cl)CC2,< 800 nM
19,CC(=O)Nc1nc2c(s1)-c1c(cnn1-c1cccc3ccccc13)CC2,< 800 nM
20,CCN(CC)CC1CCCCN1C(=O)c1ccc(-n2ncc3c2-c2sc(NC(C)=O)nc2CC3)cc1 (centres undefined),< 800 nM

row,Structure (SMILES),IC50
1,CC(=O)Nc1nc2c(s1)-c1c(cnn1-c1ccc(C(=O)N(C)CC(=O)N(C)C)cc1)CC2,< 800 nM
2,CC(=O)Nc1nc2c(s1)-c1c(cnn1-c1ccc(C(=O)N[C@H]3CC[C@H](N4CCN(S(C)(=O)=O)CC4)CC3)cc1)CC2,< 800 nM
3,CC(=O)Nc1nc2c(s1)-c1c(cnn1-c1ccc(C(=O)N[C@@H](Cc3c[nH]cn3)C(N)=O)cc1Cl)CC2,< 800 nM
4,CC(=O)Nc1nc2c(s1)-c1nc(-c3ccccn3)ncc1CC2,< 800 nM
5,CC(=O)Nc1nc2c(s1)-c1c(cnn1-c1ccc(CC(=O)NCCC3CCCN3C)cc1)CC2 (centres undefined),< 800 nM
6,CC(=O)Nc1nc2c(s1)-c1c(cnn1-c1ccc(C(=O)N[C@H]3CC[C@@H](N4CCN(CC5CC5)CC4)CC3)cc1)CC2,< 800 nM
7,CC(=O)Nc1nc2c(s1)-c1nc(C(C)(C)C)ncc1CC2,< 800 nM
8,CC(=O)Nc1nc2c(s1)-c1nn(C(=O)C3CC3)cc1CC2,< 800 nM
9,CC(=O)Nc1nc2c(s1)-c1c(cnn1-c1ccc(C(=O)N(C)Cc3ccccc3)cc1)CC2,< 800 nM
10,CC(=O)Nc1nc2c(s1)-c1nc(-n3cccn3)ncc1CC2,< 800 nM
11,CC(C)c1nn(-c2ccccc2Cl)c2c1CCc1nc(NC(N)=O)sc1-2,< 800 nM
12,CC(=O)Nc1nc2c(s1)-c1c(c(-c3c[nH]cn3)nn1-c1ccccc1C(F)(F)F)CC2,< 800 nM
13,CC(=O)Nc1nc2c(s1)-c1c(c(C)nn1-c1ccccc1Cl)CC2,< 800 nM
14,COc1cc(-n2ncc3c2-c2sc(NC(C)=O)nc2CC3)nc(OC)n1,< 800 nM
15,CCN1CCCC(NC(=O)Cc2ccc(-n3ncc4c3-c3sc(NC(C)=O)nc3CC4)cc2)C1 (centres undefined),< 800 nM
16,CC(=O)Nc1nc2c(s1)-c1c(cnn1-c1ccc(C(=O)N[C@@H](Cc3ccc4ccccc4c3)C(N)=O)cc1Cl)CC2,< 800 nM
17,CC(=O)Nc1nc2c(s1)-c1c(cnn1-c1ccc(C(=O)N[C@@H](CCCCN)C(N)=O)cc1Cl)CC2,< 800 nM
18,CNC(=O)Nc1nc2c(s1)-c1nc(N(C)C)ncc1CC2,< 800 nM
19,CC(=O)Nc1nc2c(s1)-c1c(cnn1-c1ccc(C(=O)NCc3ncc[nH]3)cc1)CC2,< 800 nM
20,CCNC(=O)Nc1nc2c(s1)-c1c(cnn1-c1ccccc1)CC2,< 800 nM

row,Structure (SMILES),IC50
1,CC(=O)Nc1nc2c(s1)-c1nn(-c3ccccc3C)c(-c3cn(C)cn3)c1CC2,< 800 nM
2,COCc1nn(-c2ccc(C(=O)N[C@H]3CC[C@@H](N4CCCC4)CC3)cc2Cl)c2c1CCc1nc(NC(C)=O)sc1-2,< 800 nM
3,CC(=O)Nc1nc2c(s1)-c1c(cnn1-c1ccc(S(=O)(=O)N(C)CCN(C)C)cc1)CC2,< 800 nM
4,COCc1nn(-c2ccccc2)c2c1CCc1nc(NC(C)=O)sc1-2,< 800 nM
5,CC(=O)Nc1nc2c(s1)-c1c(cnn1-c1ccc(CC(=O)N3CCC(N4CCNC4=O)CC3)cc1)CC2,< 800 nM
6,CC(=O)Nc1nc2c(s1)-c1c(c(-c3cn(C)cn3)nn1-c1ccccc1C(F)(F)F)CC2,< 800 nM
7,CN(C)c1ncc2c(n1)-c1sc(NC(N)=O)nc1CC2,< 800 nM
8,CC(=O)Nc1nc2c(s1)-c1c(cnn1-c1ccc(C(=O)N[C@H]3CC[C@H](N4CCN(c5ccccc5)CC4)CC3)cc1)CC2,< 800 nM
9,CC(=O)Nc1nc2c(s1)-c1c(cnn1-c1ccc(C(=O)N[C@@H](C(N)=O)[C@H](C)O)cc1Cl)CC2,< 800 nM
10,CC(=O)Nc1nc2c(s1)-c1c(cnn1-c1ccc(C(=O)N[C@@H]3CCOC3=O)cc1)CC2,< 800 nM
11,CC(=O)Nc1nc2c(s1)-c1c(c(C(=O)N(C)CCO)nn1-c1ccccc1)CC2,< 800 nM
12,CC(=O)Nc1nc2c(s1)-c1nc(-c3ccc(C)cc3)ncc1CC2,< 800 nM
13,CC(=O)Nc1nc2c(s1)-c1c(cnn1-c1ccc(C(=O)N[C@H](CCCCNC(=N)N)C(N)=O)cc1Cl)CC2,< 800 nM
14,CC(=O)Nc1nc2c(s1)-c1c(cnn1-c1ccc(C(=O)N[C@H]3CC[C@H](N(Cc4ccccc4)Cc4ccccc4)CC3)cc1)CC2,< 800 nM
15,CC(=O)Nc1nc2c(s1)-c1nn(C(=O)c3ccccc3)cc1CC2,< 800 nM
16,CC(=O)Nc1nc2c(s1)-c1c(cnn1-c1ccc(C(=O)N3CCS(=O)(=O)CC3)cc1)CC2,< 800 nM
17,CC(=O)Nc1nc2c(s1)-c1c(cnn1-c1ccc(CC(=O)N3CCCC(=O)CC3)cc1)CC2,< 800 nM
18,CC(=O)Nc1nc2c(s1)-c1c(cnn1-c1ccccc1)CC2,< 800 nM
19,CC(=O)Nc1nc2c(s1)-c1c(c([C@H]3CCCO3)nn1-c1ccccc1)CC2,< 800 nM
